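Protocol summary: plate cells (96-well), add compound at 5 concentrations, incubate 48 h, interpolate endpoints linearly. GI50 = concentration required for 50% inhibition of growth.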 Calls of active or inactive are those of the source. Rule as the data show it: active = GI50 up to about 1.1 µM and inactive = higher.
Legend:
Assay in all cases: inhibition of tumour cell growth, NCI panel, 48 h
[1] = test system: HCC 2998
[2] = test system: SK-MEL-28
[3] = test system: MDA-MB-231
[4] = test system: SW-620
[5] = test system: ACHN
[6] = test system: K562
[7] = test system: EKVX
[8] = test system: Hs-578T
[9] = test system: UO-31
[10] = test system: NCI-H522
[11] = test system: SK-OV-3
[12] = test system: COLO 205
[13] = test system: SNB-75
[14] = test system: HOP-62
[15] = test system: MDA-N
[16] = test system: MDA-MB-435
[17] = test system: DU-145
[18] = test system: CCRF-CEM
[19] = test system: TK-10
[20] = test system: NCI-H226
[21] = test system: SF-539
[22] = test system: NCI-H23
[23] = test system: MCF7
[24] = test system: UACC-257
[25] = test system: SF-295
[26] = test system: SK-MEL-5
[27] = test system: BT-549
[28] = test system: RXF 393
[29] = test system: UACC-62
[30] = test system: RPMI-8226
[31] = test system: M14
[32] = test system: OVCAR-4
[33] = test system: U-251
[34] = test system: NCI-H460
[35] = test system: NCI/ADR-RES
[36] = test system: 786-0
[37] = test system: SF-268
[38] = test system: SN12C
[39] = test system: SR
[40] = test system: A549
[41] = test system: MOLT-4
[42] = test system: CAKI-1
[43] = test system: HCT-15
[44] = test system: T47D
[45] = test system: PC-3
[46] = test system: IGROV-1
[47] = test system: HCT-116
[48] = test system: HL-60
[49] = test system: OVCAR-8
[50] = test system: HT-29
[51] = test system: OVCAR-3
[52] = test system: SNB-19
[53] = test system: KM12
[54] = test system: OVCAR-5
[55] = test system: HOP-92
[56] = test system: Malme-3M
[57] = test system: SK-MEL-2
[58] = test system: LOX IMVI

SMILES: COC(=O)c1ccc(/C=C2\Oc3ccccc3C2=O)cc1
- GI50 [1]: > 100 µM (inactive)
- GI50 [2]: > 100 µM (inactive)
- GI50 [3]: > 100 µM (inactive)
- GI50 [4]: > 100 µM (inactive)
- GI50 [5]: > 100 µM (inactive)
- GI50 [6]: > 10 µM (inactive)
- GI50 [7]: > 100 µM (inactive)
- GI50 [8]: > 100 µM (inactive)
- GI50 [9]: > 100 µM (inactive)
- GI50 [10]: 32.1 µM (inactive)
- GI50 [11]: > 100 µM (inactive)
- GI50 [12]: > 100 µM (inactive)
- GI50 [13]: > 100 µM (inactive)
- GI50 [14]: > 100 µM (inactive)
- GI50 [15]: > 100 µM (inactive)
- GI50 [16]: > 100 µM (inactive)
- GI50 [17]: > 100 µM (inactive)
- GI50 [18]: 58.1 µM (inactive)
- GI50 [19]: > 100 µM (inactive)
- GI50 [20]: > 100 µM (inactive)
- GI50 [21]: > 100 µM (inactive)
- GI50 [22]: > 100 µM (inactive)
- GI50 [23]: > 100 µM (inactive)
- GI50 [24]: > 100 µM (inactive)
- GI50 [25]: > 100 µM (inactive)
- GI50 [26]: > 100 µM (inactive)
- GI50 [27]: > 100 µM (inactive)
- GI50 [28]: > 100 µM (inactive)
- GI50 [29]: > 100 µM (inactive)
- GI50 [30]: > 100 µM (inactive)
- GI50 [31]: > 100 µM (inactive)
- GI50 [32]: > 100 µM (inactive)
- GI50 [33]: > 100 µM (inactive)
- GI50 [34]: > 100 µM (inactive)
- GI50 [35]: > 100 µM (inactive)
- GI50 [36]: > 100 µM (inactive)
- GI50 [37]: > 100 µM (inactive)
- GI50 [38]: > 100 µM (inactive)
- GI50 [39]: > 100 µM (inactive)
- GI50 [40]: > 100 µM (inactive)
- GI50 [41]: > 100 µM (inactive)
- GI50 [42]: 41.2 µM (inactive)
- GI50 [43]: > 100 µM
- GI50 [44]: > 100 µM (inactive)
- GI50 [45]: > 100 µM (inactive)
- GI50 [46]: > 100 µM (inactive)
- GI50 [47]: > 100 µM (inactive)
- GI50 [48]: 16.4 µM (inactive)
- GI50 [49]: > 100 µM (inactive)
- GI50 [50]: > 100 µM (inactive)
- GI50 [51]: > 100 µM (inactive)
- GI50 [52]: > 100 µM (inactive)
- GI50 [53]: > 100 µM (inactive)

SMILES: O=C(O)c1cc2ccccc2c(/N=N/c2ccc(S(=O)(=O)Nc3ccccn3)cc2)c1O
- GI50 [1]: > 100 µM (inactive)
- GI50 [2]: > 100 µM (inactive)
- GI50 [3]: > 100 µM (inactive)
- GI50 [4]: > 100 µM (inactive)
- GI50 [5]: > 100 µM (inactive)
- GI50 [6]: > 100 µM (inactive)
- GI50 [7]: > 100 µM (inactive)
- GI50 [8]: > 100 µM (inactive)
- GI50 [9]: > 100 µM (inactive)
- GI50 [10]: > 100 µM (inactive)
- GI50 [11]: > 100 µM (inactive)
- GI50 [54]: > 100 µM (inactive)
- GI50 [55]: > 100 µM (inactive)
- GI50 [12]: > 100 µM (inactive)
- GI50 [13]: > 100 µM (inactive)
- GI50 [14]: > 100 µM (inactive)
- GI50 [15]: > 100 µM (inactive)
- GI50 [16]: > 100 µM (inactive)
- GI50 [17]: > 100 µM (inactive)
- GI50 [56]: > 100 µM (inactive)
- GI50 [18]: > 100 µM (inactive)
- GI50 [19]: > 100 µM (inactive)
- GI50 [20]: > 100 µM (inactive)
- GI50 [21]: > 100 µM (inactive)
- GI50 [23]: > 100 µM (inactive)
- GI50 [24]: > 100 µM (inactive)
- GI50 [25]: > 100 µM (inactive)
- GI50 [26]: > 100 µM (inactive)
- GI50 [27]: > 100 µM (inactive)
- GI50 [28]: > 100 µM (inactive)
- GI50 [29]: > 100 µM (inactive)
- GI50 [30]: > 100 µM (inactive)
- GI50 [31]: > 100 µM (inactive)
- GI50 [32]: > 100 µM (inactive)
- GI50 [33]: > 100 µM (inactive)
- GI50 [34]: > 100 µM (inactive)
- GI50 [35]: > 100 µM (inactive)
- GI50 [57]: > 100 µM (inactive)
- GI50 [36]: > 100 µM (inactive)
- GI50 [37]: > 100 µM (inactive)
- GI50 [38]: > 100 µM (inactive)
- GI50 [39]: > 100 µM (inactive)
- GI50 [40]: > 100 µM (inactive)
- GI50 [41]: > 100 µM (inactive)
- GI50 [42]: > 100 µM (inactive)
- GI50 [43]: > 100 µM
- GI50 [44]: > 100 µM (inactive)
- GI50 [45]: > 100 µM (inactive)
- GI50 [46]: > 100 µM (inactive)
- GI50 [47]: > 100 µM (inactive)
- GI50 [48]: > 100 µM (inactive)
- GI50 [49]: > 100 µM (inactive)
- GI50 [50]: > 100 µM (inactive)
- GI50 [51]: > 100 µM (inactive)
- GI50 [52]: < 0.01 µM (active)
- GI50 [53]: > 100 µM (inactive)

SMILES: Brc1cc2nn(-c3ccccc3)nc2c2nonc12
- GI50 [1]: > 100 µM (inactive)
- GI50 [2]: > 100 µM (inactive)
- GI50 [3]: > 100 µM (inactive)
- GI50 [4]: > 100 µM (inactive)
- GI50 [5]: > 100 µM (inactive)
- GI50 [6]: > 100 µM (inactive)
- GI50 [7]: > 100 µM (inactive)
- GI50 [8]: > 100 µM (inactive)
- GI50 [9]: > 100 µM (inactive)
- GI50 [10]: > 100 µM (inactive)
- GI50 [11]: > 100 µM (inactive)
- GI50 [54]: > 100 µM (inactive)
- GI50 [55]: > 100 µM (inactive)
- GI50 [12]: > 100 µM (inactive)
- GI50 [58]: > 100 µM (inactive)
- GI50 [13]: > 100 µM (inactive)
- GI50 [14]: > 100 µM (inactive)
- GI50 [15]: > 100 µM (inactive)
- GI50 [16]: > 100 µM (inactive)
- GI50 [17]: > 100 µM (inactive)
- GI50 [56]: > 100 µM (inactive)
- GI50 [18]: > 100 µM (inactive)
- GI50 [19]: > 100 µM (inactive)
- GI50 [20]: > 100 µM (inactive)
- GI50 [21]: > 100 µM (inactive)
- GI50 [22]: > 100 µM (inactive)
- GI50 [23]: > 100 µM (inactive)
- GI50 [24]: > 100 µM (inactive)
- GI50 [25]: > 100 µM (inactive)
- GI50 [26]: > 100 µM (inactive)
- GI50 [27]: > 100 µM (inactive)
- GI50 [29]: > 100 µM (inactive)
- GI50 [30]: > 100 µM (inactive)
- GI50 [31]: > 100 µM (inactive)
- GI50 [32]: > 100 µM (inactive)
- GI50 [33]: > 100 µM (inactive)
- GI50 [34]: > 100 µM (inactive)
- GI50 [35]: > 100 µM (inactive)
- GI50 [57]: > 100 µM (inactive)
- GI50 [36]: > 100 µM (inactive)
- GI50 [37]: > 100 µM (inactive)
- GI50 [38]: > 100 µM (inactive)
- GI50 [39]: > 100 µM (inactive)
- GI50 [40]: > 100 µM (inactive)
- GI50 [41]: > 100 µM (inactive)
- GI50 [42]: > 100 µM (inactive)
- GI50 [43]: > 100 µM
- GI50 [44]: 28.4 µM (inactive)
- GI50 [45]: > 100 µM (inactive)
- GI50 [46]: > 100 µM (inactive)
- GI50 [47]: > 100 µM (inactive)
- GI50 [48]: > 100 µM (inactive)
- GI50 [49]: > 100 µM (inactive)
- GI50 [50]: > 100 µM (inactive)
- GI50 [51]: > 100 µM (inactive)
- GI50 [52]: > 100 µM (inactive)
- GI50 [53]: > 100 µM (inactive)
